SMILES	melting point
CCOC(=O)c1c(C)nc2nccnc2c1NCCCN(C)C	42 to 44 °C
Cc1ccc(S(=O)(=O)OCC2COC(C(F)(F)F)(C(F)(F)F)O2)cc1 (stereo not given)	57 to 58.5 °C
COc1cc(C(F)(F)F)c2[nH]c3c(c2c1)CNCC3	140 to 144 °C
Cc1cc(I)ccc1N=C=S	51 to 53 °C
CCOC(=O)c1c(C)nc2sc(C)nc2c1NCCCN(C)C	53 to 54 °C
C=CC12CCc3cc(O)ccc3C1=CCC1(C)C(O)CCC21 (stereo not given)	149 to 150 °C
COc1cc2ncc(C#N)c(Nc3ccc(Cl)cc3C)c2cc1OC	227 to 229 °C
C=CC=C1SC(=S)N(CC(=O)O)C1=O	144 to 146 °C
COc1ccc(C#N)c(O)c1	169 to 171 °C
N#Cc1c(N2CCCCC2)cc(-c2cccc3ccccc23)c2c1Cc1ccccc1-2	148 to 149 °C
CCN(CCc1c[nH]c2ccc(F)cc12)C1COc2c(F)ccc(C(N)=O)c2C1 (stereo not given)	127 °C
COCC(F)Cn1ccnc1[N+](=O)[O-] (stereo not given)	39 to 44 °C
COC(=O)C(=NO)c1cc(Cl)nc(NC=O)n1	110 to 112 °C
Cc1noc2cc3c(cc12)C1(CO3)C(=O)Nc2ccccc21 (stereo not given)	226 to 227 °C
O=C1CCC2=C1C(c1ccc3nonc3c1)C1=C(CCC1=O)N2	272 to 273 °C
CC(C)(C)OC(=O)CON=C(C(=O)O)c1ccco1	105 to 106 °C
CCNC(=O)c1sc(C=O)cc1[Si](C)(C)C	62 to 65 °C

More lines, now with the values ahead:

melting point	SMILES
151 to 152 °C	COc1ccccc1CN1CCN(CCCOc2ccc3c(C)cc(=O)[nH]c3c2)CC1
160 to 165 °C	C[C@@H]1CN(CCCn2c3ccc(O)cc3c3c4c(c(-c5c(Cl)cccc5Cl)cc32)C(=O)NC4=O)C[C@H](C)N1
125 to 126 °C	CC(C)(CNc1ccnc2cc(Cl)ccc12)NCc1cccc(Cl)c1
211 to 212 °C	CN(c1cccc2cc(C(=O)O)[nH]c12)S(=O)(=O)c1ccccc1C(F)(F)F
256 to 258 °C	NC(=O)c1cnn2c(-c3cccc(C(F)(F)F)c3)ccnc12
116 to 118 °C	CC(C)Oc1cc([N+](=O)[O-])c(F)cc1C#N
139 °C	O=c1[nH]c2ccccc2n1CCCN1CCN(C(c2ccccc2)c2ccccc2Cl)CC1 (stereo not given)
133 °C	CC(=O)Nc1ccc(-c2cc(-c3c(-c4ccccn4)nc4ccccn34)ccn2)cc1
221 to 228 °C	CNC(=O)c1ccc(C=CC(=O)NCC(=O)N(C)c2ccc(Cl)c(COc3cccc4ccc(C)nc34)c2)cc1
148 to 149 °C	COc1ccc(C2CC(=O)N(C(N)=O)N2Cc2ccccc2)cc1OC1CCCC1 (stereo not given)
73 to 74 °C	O=[N+]([O-])c1ccccc1OC[C@@H](O)CNCCc1ccc(Cl)c(Cl)c1
113 to 119 °C	CCCNC(=O)c1c(N)cc(Cl)cc1Cl
220 to 222 °C	N#Cc1cnc2cc(Cl)c([N+](=O)[O-])cc2c1Nc1ccc(Oc2ccccc2)cc1
195 °C	Cc1c(CNS(=O)(=O)c2ccc(C(F)(F)F)cc2)nn(-c2ccc(Cl)cc2Cl)c1-c1ccc(Br)cc1
92.9 °C	CNC(=O)CN(c1ccc(Cl)cc1Cc1c(F)cccc1F)S(=O)(=O)c1ccc(OC)c(OC)c1
178 to 181 °C	COc1ccc(Cn2nnc(C3=C(O)c4ccccc4S(=O)(=O)N3C)n2)cc1
83 to 86 °C	Cc1cccc(C)c1CCOCCCCCCNCc1c(CO)ccc(O)c1CO
218 to 219 °C	C[C@@H](NC(=O)c1ccc(-c2ccc(Cl)cc2)o1)[C@](O)(Cn1cncn1)c1ccc(F)cc1F
167 to 168 °C	COc1ccc(S(=O)(=O)Nc2ccccc2NC(=O)c2ccccc2)cc1
248 to 250 °C	CC(C)(N)Cn1c(CO)nc2c(N)nc3ccccc3c21
193 °C	COc1ccccc1C1C(=O)Nc2cc(C)c(Cl)cc21 (stereo not given)
97 to 99 °C	CCc1ccc([N+]([O-])=Cc2ccc(C)cc2)cc1
100 to 102 °C	OC(CNC1CC1)COc1ccc(-c2nccs2)cc1 (stereo not given)

From a melting point compilation (Tetko et al.; mined from patent text by program, amines drawn as free bases though some values may be those of a salt)
